Experiments:
OCI-AML-2 = experiment: Cell viability assay (MTS); assay type: cell-based; details: Homo sapiens, OCI-AML2, 72 hours, mean ± standard deviation
Experimental: (§1) Human multiple myeloma cell lines 8226, H929, JJN3, KMH11, KMS11, KMS18, LP1, MM1S, OPM2 and U266 were grown in Iscove modified Dulbecco's medium (IMDM). Human leukemia cell lines K562, OCI-AML2 and U937 were cultured in RPMI-1640 medium. Primary peripheral blood mononuclear cells were isolated from multiple myeloma patients by Ficoll density gradient centrifugation and bone marrow aspirates were obtained from multiple myeloma patients at the Princess Margaret Cancer Centre of the University Health Network (UHN; Toronto, ON, Canada). Primary cells were cultured in IMDM. The collection and use of human tissue for this study were approved by the UHN institutional ethics review board. All cell culture media were obtained from the Ontario Cancer Institute Tissue Culture Media Facility (Toronto, ON, Canada) and were supplemented with 10% fetal calf serum, […] (Hyclone, Logan, Utah). All cells were grown in a humidified incubator at 37° C. with 5% CO2.
(§2) Cellular viability was primarily assessed by 3-(4,5-dimethylthiazol-2-yl)-5-(3-carboxymethoxyphenyl)-2-(4-sulfophenyl)-2H-tetrazolium (MTS) assay according to the manufacturer's instructions (Promega; Madison, Wis.). Cells were first seeded at a density of 10,000 cells per well in tissue culture-treated 96-well plates. Two hours after seeding, cells were treated with compounds for 72 hours at concentrations as indicated. As a control, cells were treated with DMSO alone in every assay plate. Following treatment and the MTS assay, cell viability was independently confirmed by reading the optical density (O.D.) at 490 nm and by exclusion of trypan blue stain (Invitrogen; Burlington, ON, Canada). The viability of primary mononuclear cells was determined by staining with Annexin V.
(§3) Table 9 summarizes data obtained for representative compounds of Formula I for cell viability and CT-L proteasome activity using OCI-AML-2 and KMS-11 cell lines.

KMS-11 = experiment: Cell viability assay (MTS); assay type: cell-based; details: Homo sapiens, 72 hours, mean ± standard deviation
Experimental: as §1, §2, §3

[1] = system: chymotrypsin-like (CT-L) proteasome activity, KMS-11; experiment: Proteasome enzymatic activity (tumor cell lysates); assay type: biochemical, human; details: KMS-11 cell lysate; mean ± standard deviation
Experimental: (§4) Cells were harvested by centrifugation at 1,200 rpm at room temperature. Cell pellets were washed with PBS and lysed with assay lysis buffer (50 mM HEPES (N-2-hydroxyethylpiperazine-N′-2-ethanesulfonic acid), pH 7.5; 150 mM NaCl; 1% Triton X-100; 2 mM ATP). Cell lysates were incubated on ice for 30 minutes, mixed by vortex every 5 minutes, and then centrifuged at 12,000 g for 10 minutes. The supernatant was transferred to a 96-well plate. For each assay, 10 μg of total protein were incubated for 1 hour at 37° C. with increasing concentrations (1 nM to 10 μM) of test compound diluted in assay buffer (50 mM Tris-HCl (tris(hydroxymethyl)aminomethane-HCl), pH 7.5; 150 mM NaCl). DMSO alone was used as a control in every assay plate. After incubation, a specific fluorogenic proteasome substrate was added to each assay reaction at a final concentration of 40 μM in a total volume of 100 μL. N-Succinyl-Leu-Leu-Val-Tyr-7-amino-4-methylcoumarin (Suc-Leu-Leu-Val-Tyr-AMC) was used for measuring chymotrypsin-like (CT-L) activity, t-butoxycarbonyl-Leu-Arg-Arg-7-amino-4-methylcoumarin (Boc-Leu-Arg-Arg-AMC) for trypsin-like (T-L) activity, and benzyloxycarbonyl-L-leucyl-L-leucyl-L-glutamyl-7-amino-4-methylcoumarin (Z-Leu-Leu-Glu-AMC) for caspase-like (C-L) activity. The excitation wavelength was set at 360 nm and the fluorescence emission wavelength of AMC was detected at 460 nm. The fluorescence of free AMC released during the enzymatic reaction was measured with a SpectraMax M5 fluorescent spectrophotometric plate reader (Molecular Devices, Sunnyvale, Calif.). AMC release rate was measured at 37° C. in a kinetic mode, recording every 5 minutes for 30 minutes. Experiments were performed in triplicate and repeated at least twice.
as §3

[2] = system: chymotrypsin-like (CT-L) proteasome activity, OCI-AML-2; experiment: Proteasome enzymatic activity (tumor cell lysates); assay type: biochemical, human; details: OCI-AML-2 cell lysate; mean ± standard deviation
Experimental: as §4, §3

[3] = system: primary CD138+ myeloma cells; details: compared with Example 1; Trudel et al. ASH 2009; cited from earlier work

Row | IC50 (OCI-AML-2) | IC50 [1] | IC50 [2] | SMILES | IC50 (KMS-11) | therapeutic index between CD138+ and CD-138− in patient samples [3]
1 | 401 ± 275 nM | 742 ± 83.7 nM | 600 ± 57.5 nM | CC(C)C[C@H](NC(=O)[C@H](COC(F)F)NC(=O)CN1CCOCC1)C(=O)N[C@@H](Cc1ccccc1)C(=O)[C@@]1(C)CO1 [Example 27, (2S)-N-[(1S)-1-benzyl-2-[(2R)-2-methyloxiran-2-yl]-2-oxo-ethyl]-2-[[(2S)-3-(difluoromethoxy)-2-[(2-morpholinoacetyl)amino]propanoyl]amino]-4-methylpentanamide] | 250 ± 25.9 nM | 
2 |  |  |  | CC(C)C[C@H](NC(=O)[C@H](CCc1ccccc1)NC(=O)CN1CCOCC1)C(=O)N[C@@H](Cc1ccccc1)C(=O)N[C@@H](CC(C)C)C(=O)[C@@]1(C)CO1 [carfilzomib] |  | much narrower therapeutic index
3 | 132 ± 87.5 nM | 575 ± 62.7 nM | 556 ± 123 nM | CC(C)C[C@H](NC(=O)[C@H](COC(F)F)NC(=O)CN1CCOCC1)C(=O)N[C@@H](CC(C)C)C(=O)[C@@]1(C)CO1 [Example 28, (2S)-2-[[(2S)-3-(difluoromethoxy)-2-[(2-morpholino-acetyl)amino]propa-noyl]amino]-4-methyl-N-[(1S)-3-methyl-1-[(2R)-2-methyloxirane-2-carbonyl]butyl]pentanamide] | 100 ± 18.7 nM | 
4 | 140 ± 53.5 nM | 704 ± 173 nM | 599 ± 77.7 nM | CC(C)C[C@H](NC(=O)[C@H](COC(F)F)NC(=O)[C@H](COC(F)F)NC(=O)CN1CCOCC1)C(=O)[C@@]1(C)CO1 [Example 33, (2S)-3-(difluoromethoxy)-N-[(1S)-1-(difluoromethoxymethyl)-2-[[(1S)-3-methyl-1-[(2R)-2-methyloxirane-2-carbonyl]butyl]amino]-2-oxo-ethyl]-2-[(2-morpholinoacetyl)amino]propanamide] | 46.7 ± 9.89 nM | 
